Results as given in paper PMC7614683, “A small molecule PI3Kα activator for cardioprotection and neuroregeneration” (Nature, 2023).

What was measured:
full length p110α/p85α = molecular target: T1, full length p110α/p85α (Homo sapiens, UniProt P42336); assay: Surface plasmon resonance; assay type: binding; conditions: immobilized p110α/p85α; read-out: Kd for PI3Kα by surface plasmon resonance
T1 construct: Full-length human p110α was expressed either in a complex with full-length human p85α (for HTS, biochemistry and HDX-MS); 6xHis tag followed by TEV protease site (N); host or cells: Spodoptera frugiperda Sf9, baculovirus
T1 sequence (P42336 whole entry): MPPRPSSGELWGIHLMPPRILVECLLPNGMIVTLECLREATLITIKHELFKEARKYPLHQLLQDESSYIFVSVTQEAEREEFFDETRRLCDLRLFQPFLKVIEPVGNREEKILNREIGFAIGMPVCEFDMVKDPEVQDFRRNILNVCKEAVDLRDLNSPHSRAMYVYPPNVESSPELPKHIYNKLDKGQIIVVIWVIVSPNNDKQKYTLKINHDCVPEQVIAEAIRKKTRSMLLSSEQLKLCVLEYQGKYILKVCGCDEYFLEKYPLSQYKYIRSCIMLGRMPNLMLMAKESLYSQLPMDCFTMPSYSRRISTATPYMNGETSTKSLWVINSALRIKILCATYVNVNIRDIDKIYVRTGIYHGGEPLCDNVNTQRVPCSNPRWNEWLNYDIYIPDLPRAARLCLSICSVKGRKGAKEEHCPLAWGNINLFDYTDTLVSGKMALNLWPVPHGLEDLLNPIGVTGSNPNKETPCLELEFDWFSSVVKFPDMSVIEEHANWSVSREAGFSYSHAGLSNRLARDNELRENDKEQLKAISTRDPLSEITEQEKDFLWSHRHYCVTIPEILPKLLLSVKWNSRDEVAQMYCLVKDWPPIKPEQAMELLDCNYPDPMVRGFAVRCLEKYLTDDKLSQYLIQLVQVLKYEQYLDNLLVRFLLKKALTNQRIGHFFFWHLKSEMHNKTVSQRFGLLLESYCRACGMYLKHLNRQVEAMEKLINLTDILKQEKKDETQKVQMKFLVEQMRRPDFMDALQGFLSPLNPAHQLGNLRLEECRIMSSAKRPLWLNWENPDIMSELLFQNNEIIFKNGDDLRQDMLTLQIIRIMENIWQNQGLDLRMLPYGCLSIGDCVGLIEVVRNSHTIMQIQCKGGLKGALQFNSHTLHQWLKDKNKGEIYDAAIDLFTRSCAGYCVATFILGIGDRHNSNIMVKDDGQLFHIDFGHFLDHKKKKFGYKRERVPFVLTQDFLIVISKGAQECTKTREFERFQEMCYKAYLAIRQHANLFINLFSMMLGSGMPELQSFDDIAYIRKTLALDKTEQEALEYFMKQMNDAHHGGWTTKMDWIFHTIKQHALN
T1 sequence (P27986 whole entry partner): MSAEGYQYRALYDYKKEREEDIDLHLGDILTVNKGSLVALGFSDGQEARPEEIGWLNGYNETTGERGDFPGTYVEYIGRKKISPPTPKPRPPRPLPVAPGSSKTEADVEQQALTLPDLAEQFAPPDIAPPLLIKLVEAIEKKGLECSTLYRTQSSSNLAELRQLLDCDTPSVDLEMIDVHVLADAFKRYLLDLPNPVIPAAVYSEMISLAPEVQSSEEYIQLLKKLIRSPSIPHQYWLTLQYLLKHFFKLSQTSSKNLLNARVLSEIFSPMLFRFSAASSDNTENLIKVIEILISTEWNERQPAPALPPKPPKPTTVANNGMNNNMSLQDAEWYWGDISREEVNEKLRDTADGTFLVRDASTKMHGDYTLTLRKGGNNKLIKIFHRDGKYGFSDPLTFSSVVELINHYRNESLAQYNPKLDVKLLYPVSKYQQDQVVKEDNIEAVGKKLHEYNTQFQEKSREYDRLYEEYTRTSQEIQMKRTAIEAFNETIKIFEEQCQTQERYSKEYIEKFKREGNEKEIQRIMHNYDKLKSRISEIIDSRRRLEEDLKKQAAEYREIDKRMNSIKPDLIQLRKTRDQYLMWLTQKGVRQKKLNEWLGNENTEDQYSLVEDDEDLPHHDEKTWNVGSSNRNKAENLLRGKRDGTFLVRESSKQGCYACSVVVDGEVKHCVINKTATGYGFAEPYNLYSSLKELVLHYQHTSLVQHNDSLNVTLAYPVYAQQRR
Procedure: SPR was performed with a Biacore T200, using CM7-sensor chips (Cytiva). Both reference control and analyte channels were equilibrated in HBS-P (Cytiva) supplemented with 5% (v/v) DMSO at 20°C. Full length p110α/p85α was immobilised onto the chip surface via amide coupling using the supplied kit (Cytiva) to reach an RU value of approximately 25,000 RU. Serial dilutions (1:2) of 1938 starting from 500 μM were injected over the chip for 60 s at 30 μL/min, with a 60 sec dissociation time. The data were double-referenced to the response on a blank but similarly modified flow channel and a buffer-only injection was subtracted. Any differences in the DMSO concentrations between the sample and buffer were corrected using the in-built solvent correction protocol. After reference and buffer signal correction, sensogram data were fitted using Prism 9.4.1 (GraphPad Software Inc). The responses at equilibrium (Req) of the were then fitted to a 1:1 binding model with a linear non-specific phase to determine Kd: (1) Req=(CRmax/C+Kd)+DC+B where C is the analyte concentration and Rmax is the maximum response at saturation, D is a non-specific response and B is the background resonance. Data were replotted correcting for the linear non-specific response. The binding was performed in triplicate.

HeLa cells = assay: TIRF microscopy of PIP3 and PI(3,4)P2 reporters, HeLa; assay type: cell-based, human
Procedure: Phosphoinositide reporters used were GFP-PH-ARNO^I303Ex2 (PIP3 reporter[41]) and mCherry-cPH-TAPP1x3 (PI(3,4)P2 reporter[41]). TIRF microscopy allows selective imaging of the small cell volume, including the plasma membrane, directly adjacent to the coverslip onto which cells have been seeded. HeLa or A549 cells were seeded in Matrigel-coated (Corning #354230; diluted in Opti-MEM at 1:50) 8-well chamber slides (glass bottom, 1.55 refractive index; Thermo Fisher Scientific #155409) at a density of 5,000 cells/well. […]
Image analyses of total reporter intensities were performed with the Fiji open source image analysis package. The region of interest (ROI) corresponding to the footprint of the individual cell across time points were defined using minimal intensity projection to select only pixels present across all time points, following prior subtraction of camera noise (rolling ball method, radius = 500 pixels) and xy drift correction, intensity levels over time were measured. […] All other quantifications were performed using the open source software R/RStudio. The values plotted in Fig. 3d (iii) represent mean±SEM, following signal scaling to minimum and maximum values of the normalised fluorescence intensity for each time point (Fn(t)). […]

Structure (SMILES): CCN1CCN(c2ccc(Nc3cc(Nc4cccc5c4N(C(C)=O)CC5)ccn3)cc2)CC1 [Compound 1938]
- Kd (full length p110α/p85α): 36 ± 5 µM
- membrane-associated PI(3,4)P2 (biosensor) (HeLa cells): generation of membrane-associated PI(3,4)P2
- plasma membrane PIP3 (biosensor) (HeLa cells): acute and BYL719-sensitive burst of PIP3
